Data on four molecules can be found in patent EP0095454A2, “Nuclens-substituted pyrogallol derivatives” (Gerot-Pharmazeutika Gesellschaft m.b.H., priority 1982, dated 1983).

Structures can show the parent of a compound that is named as a salt.

In one experiment the test system is Maus. Put plainly: Writhing test according to Huntingdon (analgesia). It counts as in vivo. The settings on record: Mus musculus, oral. How it is done:
(§1) Sobewirkt z.B. das Hydrochlorid von 2,2-Dimethyl-4- (2' hydroxy-3'-tert.butylaminopropoxy)-1,3-benzodioxol am wachen Hund eine 40-fach intensivere Abschwächung der positiv chronotropen Isoprenalinwirkung als der bekannte B-Blocker Atenolol in gleicher Dosierung und ergibt im Writhing-Test nach Huntingdon mit einer ED 50 von nur 8 mg/kg (Maus, oral) eine gute analgetische Wirkung. Vergleicht man diese im Writhina-Test mit der von bekannten Analgetika, dann zeigt sich die Überlegenheit des neuen Wirkstoffes: […]
Background: An intraperitoneal irritant provokes the stretching counted in writhing tests.

Another experiment relates to ß-Adrenozeptor. Put plainly: Attenuation of the positive chronotropic effect of isoprenaline in the conscious dog. The class given is in vivo, Hund. The settings on record: intensity relative to the known ß-blocker Atenolol at the same dose. As for the experimental part:
as §1

`CC(C)(C)NCC(O)COc1cccc2c1OC(C)(C)O2` (centres unmarked) [2,2-Dimethyl-4-(2'-hydroxy-3'-tert.butylamino--propoxy)-1,3-benzodioxol] displayed an ED50 in the experiment on Maus of 8 mg/kg. In addition, the “Abschwächung der positiv chronotropen Isoprenalinwirkung” value with ß-Adrenozeptor is recorded as 40 -fach. The molecule `Cc1c(N(C)CS(=O)(=O)O)c(=O)n(-c2ccccc2)n1C` [Metamizol-Natrium] yielded an ED50 in the experiment on Maus of 10.6 mg/kg. On the same count and under the same terms, as for `NC(=O)c1ccccc1OCC(=O)O` [Natriumsalz der Salicylamid-O-essigsäure], the figure is 11.5 mg/kg.

In the case of `CCOC(=O)C1(c2ccccc2)CCN(C)CC1` [Pethidin-Hydrochlorid], the ED50 with Maus was determined as 13.3 mg/kg.

Broadly, the ED50 is the dose at which the effect has come halfway, by size or by number of responders.
